Assay [1] deals with T1, NOP receptor (Homo sapiens, UniProt P41146).
T1 construct: expressed in transfected cells
The assay is classed as binding.

Assay [2] concerns the target T2, MOP receptor (Homo sapiens, UniProt P35372).
T2 construct: expressed in transfected cells
It counts as binding.

The target in assay [3] is T3, DOP receptor (Homo sapiens, UniProt P41143).
T3 construct: expressed in transfected cells
The assay is classed as binding.

For assay [4], the target named is T4, KOP receptor (Homo sapiens, UniProt P41145).
T4 construct: expressed in transfected cells
It counts as binding.

In assay [5] the target is T1, NOP receptor. The experiment in a line: [35S]GTPγS binding stimulation (agonist), CHO membranes. The assay is classed as biochemical. To be noted: for NOP % stim: [35S]GTPγS stimulation relative to standard agonist N/OFQ; for EC50: [35S]GTPγS stimulation, average ± SD. In general terms: GTPγS resists hydrolysis and so accumulates on activated G proteins.
Assay [6] has as its target T2, MOP receptor. The assay is classed as biochemical.
Assay [7] deals with T3, DOP receptor. The experiment in a line: [35S]GTPγS binding stimulation (agonist), CHO membranes. To be noted: for DOP % stim: [35S]GTPγS stimulation relative to standard agonist DPDPE; for EC50: [35S]GTPγS stimulation, * = too little stimulation (if < 15% an EC50 was not always determined). The assay is classed as biochemical.
Assay [8] deals with T4, KOP receptor. It counts as biochemical.
For assay [9], the target named is T2, MOP receptor. The experiment in a line: [35S]GTPγS antagonist assay and Schild analysis versus DAMGO. It counts as biochemical. The settings on record: for Type of antagonism at MOP: Schild analysis.
In a further assay the test system is CD1 mice. Kind of assay: Mouse tail flick assay (radiant heat, acute thermal nociception). To be noted: 3 mg/kg; 30, 60, 120 min. It counts as in vivo. A general note: Hot-plate and tail-flick tests time the reaction to a heat stimulus.
The mark [10] stands for this setting: antagonist activity in [35S]GTPγS assay, Schild analysis versus DAMGO.

Several values for one entry are separate records, joined by “and”; a condition that tells them apart may be missing. Equal values may be shown once. Where a name gives a salt, the structure may show the parent alone.

T4 sequence (P41145 whole entry): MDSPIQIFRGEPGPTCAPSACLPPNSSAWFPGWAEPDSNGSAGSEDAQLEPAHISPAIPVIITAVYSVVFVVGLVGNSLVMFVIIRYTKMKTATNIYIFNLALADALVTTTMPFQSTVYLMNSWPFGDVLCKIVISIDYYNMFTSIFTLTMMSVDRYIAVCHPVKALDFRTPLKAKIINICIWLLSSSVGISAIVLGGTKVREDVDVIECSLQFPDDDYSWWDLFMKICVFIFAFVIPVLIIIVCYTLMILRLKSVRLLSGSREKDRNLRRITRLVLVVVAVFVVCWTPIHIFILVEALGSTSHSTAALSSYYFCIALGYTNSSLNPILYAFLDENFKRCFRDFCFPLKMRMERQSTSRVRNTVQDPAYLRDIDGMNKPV
T3 sequence (P41143 whole entry): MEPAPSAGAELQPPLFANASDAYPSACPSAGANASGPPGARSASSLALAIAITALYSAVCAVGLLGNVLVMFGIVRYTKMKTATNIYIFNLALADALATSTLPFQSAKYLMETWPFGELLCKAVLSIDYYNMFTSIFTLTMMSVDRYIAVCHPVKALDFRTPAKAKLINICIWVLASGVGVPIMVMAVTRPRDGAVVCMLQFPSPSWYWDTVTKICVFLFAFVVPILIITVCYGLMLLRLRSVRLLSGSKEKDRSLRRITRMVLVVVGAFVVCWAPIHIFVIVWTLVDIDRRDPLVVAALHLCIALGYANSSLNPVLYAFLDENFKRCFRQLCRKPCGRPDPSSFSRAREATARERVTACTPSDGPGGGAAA
T2 sequence (P35372 whole entry): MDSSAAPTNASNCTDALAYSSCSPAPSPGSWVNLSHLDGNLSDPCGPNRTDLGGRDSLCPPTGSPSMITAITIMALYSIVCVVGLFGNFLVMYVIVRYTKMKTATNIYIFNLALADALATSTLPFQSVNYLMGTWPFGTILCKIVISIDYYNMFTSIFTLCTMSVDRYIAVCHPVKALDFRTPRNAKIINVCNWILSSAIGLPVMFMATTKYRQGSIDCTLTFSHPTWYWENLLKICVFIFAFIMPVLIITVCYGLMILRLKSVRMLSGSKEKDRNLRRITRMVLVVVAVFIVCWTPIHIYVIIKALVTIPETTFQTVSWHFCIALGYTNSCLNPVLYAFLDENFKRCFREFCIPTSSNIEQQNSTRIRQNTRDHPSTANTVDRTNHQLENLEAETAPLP
T1 sequence (P41146 whole entry): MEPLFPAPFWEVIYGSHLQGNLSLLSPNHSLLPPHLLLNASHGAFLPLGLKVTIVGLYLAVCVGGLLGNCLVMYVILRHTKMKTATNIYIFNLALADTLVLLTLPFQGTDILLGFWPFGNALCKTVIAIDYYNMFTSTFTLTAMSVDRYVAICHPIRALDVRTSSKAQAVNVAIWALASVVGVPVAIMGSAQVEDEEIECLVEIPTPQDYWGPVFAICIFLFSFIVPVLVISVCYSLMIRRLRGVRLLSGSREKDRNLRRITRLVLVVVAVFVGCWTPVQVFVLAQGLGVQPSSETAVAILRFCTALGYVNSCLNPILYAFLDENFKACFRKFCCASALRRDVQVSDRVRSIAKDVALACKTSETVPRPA

The term Ki denotes a measure of affinity in units of concentration, obtained from inhibition or displacement. A higher Ki goes with a looser hold on the target. As usually defined, the EC50 is the midpoint of the concentration-response curve. High values mean a less potent agent, low ones a more potent agent. In the case of `O=C(Cc1ccccc1)O[C@@]12CCC(=O)[C@@H]3Oc4c(O)ccc5c4[C@@]31CCN(CC1CC1)[C@@H]2C5` [Compound 7a, 14β-phenylacetyl-17-cyclopropylmethyl-7,8-dihydronoroxymorphinone], the Ki at NOP receptor [1] was found to be 127 ± 17 nM; on MOP receptor [2] it was 0.86 ± 0.18 nM; at DOP receptor [3], 3.1 ± 0.6 nM; at KOP receptor [4], 1.14 ± 0.46 nM. The same compound yielded an NOP % stim on NOP receptor [5] of 28.1 ± 4.8%. Moreover, the EC50 came out at 401 ± 161 nM on NOP receptor [5], 3.8 ± 1.8 nM at MOP receptor [6], 5.6 ± 0.4 nM at DOP receptor [7] and 1.2 ± 0.6 nM at KOP receptor [8]. The compound also came in with an MOP % stim at MOP receptor [6] of 31.6 ± 4.2%. In addition, the DOP % stim at DOP receptor [7] worked out at 30.5 ± 5.5%. This compound gave a KOP % stim on KOP receptor [8] of 44.5 ± 13%.
Consider `Cc1ccc(CC(=O)O[C@@]23CCC(=O)[C@@H]4Oc5c(O)ccc6c5[C@@]42CCN(CC2CC2)[C@@H]3C6)cc1` [Compound 7b, 14β-(4′-methylphenylacetyl)-17-cyclopropylmethyl-7,8-dihydronoroxymorphinone], for which the Ki is 36.3 ± 4.2 nM on NOP receptor [1], 1.87 ± 0.09 nM at MOP receptor [2], 1.7 ± 0.2 nM on DOP receptor [3] and 1.56 ± 0.28 nM on KOP receptor [4]. The same compound returned an NOP % stim at NOP receptor [5] of 22.3 ± 1.4%. In addition, the EC50 on NOP receptor [5] turned out to be 169 ± 3.4 nM; at MOP receptor [6], 1.6 ± 0.9 nM; at DOP receptor [7], 3.8 ± 1.1 nM; on KOP receptor [8] it was 6.3 ± 2.2 nM. Further, on MOP receptor [6], the MOP % stim is 34.9 ± 2.0%. The compound further returned a DOP % stim on DOP receptor [7] of 27.0 ± 4.8%. On KOP receptor [8], this compound displayed a KOP % stim of 11.5 ± 2.7%.
`Cc1ccccc1CC(=O)O[C@@]12CCC(=O)[C@@H]3Oc4c(O)ccc5c4[C@@]31CCN(CC1CC1)[C@@H]2C5` [Compound 7c, 14β-(2′-methylphenylacetyl)-17-cyclopropylmethyl-7,8-dihydronoroxymorphinone]: the Ki on NOP receptor [1] came to 44.1 ± 3.1 nM; at MOP receptor [2] it was 3.59 ± 0.86 nM; at DOP receptor [3] it was 1.97 ± 0.19 nM; on KOP receptor [4], 1.69 ± 1.2 nM. The compound also gave an NOP % stim at NOP receptor [5] of 21.1 ± 1.4%. Besides, the EC50 turned out to be 106 ± 32.2 nM at NOP receptor [5], 2.2 ± 0.2 nM on MOP receptor [6], 201 ± 59 nM at DOP receptor [7] and 2.9 ± 1.8 nM at KOP receptor [8]. The compound also displayed an MOP % stim at MOP receptor [6] of 41.9 ± 1.4%. On DOP receptor [7], this compound displayed a DOP % stim of 12.6 ± 3.1%. Moreover, the KOP % stim at KOP receptor [8] is 86% and 86.3 ± 6.5%.
Take `Cc1cccc(CC(=O)O[C@@]23CCC(=O)[C@@H]4Oc5c(O)ccc6c5[C@@]42CCN(CC2CC2)[C@@H]3C6)c1` [Compound 7d, 14β-(3′-methylphenylacetyl)-17-cyclopropylmethyl-7,8-dihydronoroxymorphinone]: the Ki worked out at 49.9 ± 3.5 nM on NOP receptor [1], 1.91 ± 0.51 nM at MOP receptor [2], 5.58 ± 0.22 nM on DOP receptor [3] and 2.8 ± 0.91 nM on KOP receptor [4]. At NOP receptor [5], this compound registered an NOP % stim of 59.3 ± 2.4%. Moreover, the concentration for a half-maximal effect (EC50) worked out at 855 ± 185 nM at NOP receptor [5], 5.2 ± 2 nM at MOP receptor [6], 21.3 ± 2.2 nM on DOP receptor [7] and 1 ± 0.3 nM at KOP receptor [8]. On MOP receptor [6], this compound displayed an MOP % stim of 40.1 ± 4.4%. On DOP receptor [7], this compound showed a DOP % stim of 15.8 ± 0.1%. The same compound showed a KOP % stim at KOP receptor [8] of 46.4 ± 3.6%.
Turning to `COc1cccc(CC(=O)O[C@@]23CCC(=O)[C@@H]4Oc5c(O)ccc6c5[C@@]42CCN(CC2CC2)C3C6)c1` [Compound 7e, 14β-(3′-methoxyphenylacetyl)-17-cyclopropylmethyl-7,8-dihydronoroxymorphinone], the Ki at NOP receptor [1] turned out to be 50.1 ± 2.7 nM; on MOP receptor [2], 1.1 ± 0.08 nM; at DOP receptor [3], 3.61 ± 0.34 nM; on KOP receptor [4], 1.44 ± 0.33 nM. For the same compound, the NOP % stim at NOP receptor [5] was determined as 36.1 ± 0.3%. Besides, the EC50 at NOP receptor [5] amounted to 374 ± 81.6 nM; on MOP receptor [6] it was 13.3 ± 2.2 nM; on DOP receptor [7], 9.9 ± 0.2 nM; at KOP receptor [8], 1.7 ± 0.4 nM. On MOP receptor [6], this compound yielded an MOP % stim of 11.3 ± 1.3%. For the same compound, the DOP % stim at DOP receptor [7] turned out to be 35.7 ± 0.7%. The KOP % stim at KOP receptor [8] worked out at 46.3 ± 8.1%.
On to `O=C(Cc1ccc2c(c1)OCO2)O[C@@]12CCC(=O)[C@@H]3Oc4c(O)ccc5c4[C@@]31CCN(CC1CC1)[C@@H]2C5` [Compound 7g, 14β-(3′,4′-dioxymethylenephenylacetyl)-17-cyclopropylmethyl-7,8-dihydronoroxymorphinone], for which the Ki at NOP receptor [1] was found to be 94.3 ± 28 nM; on MOP receptor [2] it was 0.99 ± 0.35 nM; at DOP receptor [3] it was 1.25 ± 0.2 nM; at KOP receptor [4], 1.2 ± 0.42 nM. The same compound yielded an NOP % stim at NOP receptor [5] of 43.5 ± 9.4%. Further, the 50% effective concentration (EC50) was determined as 562 ± 67.5 nM at NOP receptor [5] and 5.4 ± 0.1 nM at KOP receptor [8]. The MOP % stim at MOP receptor [6] is listed as 12.1 ± 3.7%. The compound further yielded a KOP % stim at KOP receptor [8] of 41.1 ± 0.9%. For the same compound, the “Type of antagonism at MOP” value on MOP receptor [9] was “very potent competitive antagonists”. Besides, at MOP receptor [9] (setting [10]), the “MOP pA2” value came to 10.29 ± 0.24. On MOP receptor [9] (antagonist activity in [35S]GTPγS assay, Schild analysis versus DAMGO, unit not given), the “MOP Ke” value amounted to 0.051 ± 0.018.
In the case of `COc1ccccc1CC(=O)O[C@@]12CCC(=O)[C@@H]3Oc4c(O)ccc5c4[C@@]31CCN(CC1CC1)[C@@H]2C5` [Compound 7h, 14β-(2′-methoxyphenylacetyl)-17-cyclopropylmethyl-7,8-dihydronoroxymorphinone], the Ki turned out to be 62.3 ± 4.9 nM on NOP receptor [1], 3.77 ± 0.9 nM on MOP receptor [2] and 3.52 ± 0.9 nM on KOP receptor [4]. The NOP % stim at NOP receptor [5] was 40.8 ± 5.4%. The results for the EC50 at NOP receptor [5], on MOP receptor [6] and at KOP receptor [8] were 479 ± 33.3 nM, 0.5 ± 0.1 nM and 1.6 ± 0.3 nM, respectively. On MOP receptor [6], this compound came in with an MOP % stim of 37.3 ± 0.7%. This compound yielded a DOP % stim on DOP receptor [7] of 19.2 ± 4.9%. The KOP % stim on KOP receptor [8] is reported as 50.4 ± 6.0%.
As for `O=C(Cc1ccccc1F)O[C@@]12CCC(=O)[C@@H]3Oc4c(O)ccc5c4[C@@]31CCN(CC1CC1)[C@@H]2C5` [Compound 7i, 14β-(2′-fluorophenylacetyl)-17-cyclopropylmethyl-7,8-dihydronoroxymorphinone], the Ki at NOP receptor [1] came to 69.7 ± 2.4 nM; on MOP receptor [2], 2.59 ± 1.1 nM; on DOP receptor [3] it was 4.07 ± 0.91 nM; on KOP receptor [4], 4.55 ± 0.7 nM. In addition, the NOP % stim on NOP receptor [5] is 14.5 ± 2.9%. The figures for the EC50 on NOP receptor [5], on MOP receptor [6] and at KOP receptor [8] were 94.1 ± 24.7 nM, 2 ± 0.7 nM and 4 ± 2 nM, respectively. The MOP % stim at MOP receptor [6] is listed as 27.9 ± 2.8%. At KOP receptor [8], this compound displayed a KOP % stim of 43.8 ± 4.7%.
As to `O=C(Cc1ccc(Cl)cc1)O[C@@]12CCC(=O)[C@@H]3Oc4c(O)ccc5c4[C@@]31CCN(CC1CC1)C2C5` [Compound 7j, 14β-(4′-chlorophenylacetyl)-17-cyclopropylmethyl-7,8-dihydronoroxymorphinone], the Ki is 51.3 ± 14 nM at NOP receptor [1], 1.78 ± 0.03 nM at MOP receptor [2], 4.95 ± 1.1 nM at DOP receptor [3] and 3.95 ± 0.59 nM on KOP receptor [4]. The NOP % stim on NOP receptor [5] was 18.9 ± 2.7%. The EC50 was found to be 298 ± 18.6 nM on NOP receptor [5] and 5.4 ± 1.3 nM on KOP receptor [8]. Also, on MOP receptor [6], the MOP % stim was 8.2 ± 7.2%. At DOP receptor [7], this compound showed a DOP % stim of 37.2 ± 0.2%. At KOP receptor [8], this compound showed a KOP % stim of 37.1 ± 0.2%. The “Type of antagonism at MOP” value on MOP receptor [9] was “non-competitive”. Besides, at MOP receptor [9] (setting [10]), the “MOP pA2” value was “Non-competitive”.
`O=C(Cc1ccccc1Cl)O[C@@]12CCC(=O)[C@@H]3Oc4c(O)ccc5c4[C@@]31CCN(CC1CC1)[C@@H]2C5` [Compound 7k, 14β-(2′-chlorophenylacetyl)-17-cyclopropylmethyl-7,8-dihydronoroxymorphinone]: the inhibition constant (Ki) came to 32.6 ± 2.3 nM on NOP receptor [1], 4.66 ± 1.8 nM on MOP receptor [2], 3.24 ± 0.15 nM at DOP receptor [3] and 1.34 ± 0.5 nM at KOP receptor [4]. The compound also returned an NOP % stim on NOP receptor [5] of 49.9 ± 0.7%. For the same compound, the EC50 came to 808 ± 45.8 nM on NOP receptor [5], 2.4 ± 0.6 nM on MOP receptor [6] and 13.9 ± 6.4 nM on KOP receptor [8]. The compound further displayed an MOP % stim at MOP receptor [6] of 39.3 ± 4.7%. On KOP receptor [8], this compound gave a KOP % stim of 31.3 ± 5.6%.
In the case of `CN1CC[C@]23c4c5ccc(O)c4O[C@H]2[C@@H](O)C=C[C@H]3[C@H]1C5` [morphine, Morphine hydrochloride, reference compound], the “%MPE, tail flick, positive control” value in the assay with CD1 mice is given as “anticipated increase in %MPE at all time points”.
